Experimental data taken from US6911445B2, “Antidepressant cycloalkylamine derivatives of heterocycle-fused benzodioxans” (Wyeth, priority 2002, dated 2005).
Counter-ions that a name gives are not always drawn.

Columns and labels:
[1] = molecular target: T1, cloned human 5HT1A receptors (Homo sapiens, UniProt P08908); assay: 35S-GTPγS binding assay, membranes containing cloned human 5HT1A receptors; type: biochemical; conditions: for IC50: antagonist potency, reversal of the standard agonist 8-OH-DPAT, read-out: 5HT1A Function IC50; for 5HT1A Function (Imax): maximum inhibitory effect, value in parentheses
T1 construct: expressed in transfected cells
T1 sequence (P08908 1-422): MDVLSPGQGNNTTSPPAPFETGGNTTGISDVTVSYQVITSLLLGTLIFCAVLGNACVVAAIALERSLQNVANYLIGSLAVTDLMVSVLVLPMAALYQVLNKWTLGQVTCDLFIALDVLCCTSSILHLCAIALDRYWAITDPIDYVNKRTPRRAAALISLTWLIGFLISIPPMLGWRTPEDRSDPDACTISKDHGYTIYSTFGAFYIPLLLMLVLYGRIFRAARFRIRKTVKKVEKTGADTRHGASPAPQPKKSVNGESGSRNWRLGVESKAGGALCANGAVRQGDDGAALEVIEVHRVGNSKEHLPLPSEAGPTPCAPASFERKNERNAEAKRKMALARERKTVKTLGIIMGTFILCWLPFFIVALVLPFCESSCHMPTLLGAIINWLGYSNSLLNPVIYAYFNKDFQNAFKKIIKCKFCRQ
Procedure: Antagonist activity at 5HT1A receptors was established by using a ^35S-GTPγS binding assay similar to that used by Lazareno and Birdsall (Br. J. Pharmacol. 109:1120, 1993), in which the test compound's ability to affect the binding of ^35S-GTPγS to membranes containing cloned human 5HT1A receptors was determined. Agonists produce an increase in binding whereas antagonists produce no increase but rather reverse the effects of the standard agonist 8-OH-DPAT. The test compound's maximum inhibitory effect is represented as the Imax, while its potency is defined by the IC50.

[2] = molecular target: T2, human 5HT1A receptors (Homo sapiens, UniProt P08908); assay: Displacement of [3H] 8-OH-DPAT from 5HT1A receptor in stably transfected CHO cells; type: binding; conditions: CHO cells with human 5HT1A receptors, read-out: 5HT1A Receptor Affinity Ki
T2 construct: expressed in transfected cells; host or cells: CHO cells
T2 sequence (P08908 1-422): T1 sequence (P08908 1-422)
Source text: High affinity for the serotonin 5HT1A receptor was established by testing the claimed compound's ability to displace [^3H] 8-OH-DPAT (dipropylamino-tetralin) from the 5HT1A serotonin receptor following a modification of the procedure of Hall, et al., J. Neurochem. 44, 1685 (1985), which utilizes CHO cells stably transfected with human 5HT1A receptors.

[3] = molecular target: T3, serotonin transporter (Rattus norvegicus, UniProt P31652); assay: Displacement of 3H-paroxetine from male rat frontal cortical membranes (serotonin transporter affinity); type: binding; conditions: read-out: 5-HT Transporter Affinity Ki
T3 construct: displace ^3H-paroxetine from male rat frontal cortical membranes; from tissue; host or cells: male rat frontal cortex membranes
T3 sequence (P31652 whole entry): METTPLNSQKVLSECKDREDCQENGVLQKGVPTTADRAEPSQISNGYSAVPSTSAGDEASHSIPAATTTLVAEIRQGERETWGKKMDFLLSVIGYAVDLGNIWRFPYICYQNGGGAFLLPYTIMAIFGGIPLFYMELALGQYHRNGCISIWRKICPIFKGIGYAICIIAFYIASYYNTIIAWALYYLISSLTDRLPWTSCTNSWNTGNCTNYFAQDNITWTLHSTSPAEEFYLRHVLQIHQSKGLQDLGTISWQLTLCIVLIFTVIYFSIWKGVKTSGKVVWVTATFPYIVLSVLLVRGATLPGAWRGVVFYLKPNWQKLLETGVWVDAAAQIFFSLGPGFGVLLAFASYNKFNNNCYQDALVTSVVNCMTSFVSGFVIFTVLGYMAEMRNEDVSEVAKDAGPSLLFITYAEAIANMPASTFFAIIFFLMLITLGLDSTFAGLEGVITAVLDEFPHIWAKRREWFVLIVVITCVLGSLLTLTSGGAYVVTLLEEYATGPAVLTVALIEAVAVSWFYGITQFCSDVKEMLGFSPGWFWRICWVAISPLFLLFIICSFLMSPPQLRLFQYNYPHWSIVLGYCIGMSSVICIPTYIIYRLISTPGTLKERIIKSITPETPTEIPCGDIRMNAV

| Compound | IC50 [1] [nM] | 5HT1A Function (Imax) [1] [%] | Ki [2] [nM] | Ki [3] [nM] | melting point [°C] |
| --- | --- | --- | --- | --- | --- |
| Cc1nc2ccc3c(c2o1)O[C@@H](CN[C@H]1CC[C@H](c2c[nH]c4ccc(F)cc24)C1)CO3 (mixture of isomers) [Example 10, N-[(trans)-3-(5-Fluoro-1H-indol-3-yl)cyclopentyl]-N-{[(8S)-2-methyl-7,8-dihydro[1,4]dioxino[2,3-g][1,3]benzoxazol-8-yl]methyl}amine] | 172 | 85 | 28.6 | 1.38 | 79 to 82 |
| Cc1nc2ccc3c(c2o1)O[C@@H](CN[C@H]1CC[C@@H](c2c[nH]c4ccc(F)cc24)C1)CO3 (mixture of isomers) [Example 11, N-[(cis)-3-(5-Fluoro-1H-indol-3-yl)cyclopentyl]-N-{[(8S)-2-methyl-7,8-dihydro[1,4]dioxino[2,3-g][1,3]benzoxazol-8-yl]methyl}amine] | 274 | 100 | 16.4 | 1.46 | 79 to 82 |
| Cc1ccc2c3c(ccc2n1)OCC(CNC1CCC(c2cn(C)c4ccc(F)cc24)C1)O3 (single isomer, unassigned) (as salt: fumarate) [Example 5] |  |  |  |  | 200 to 201 |
| Cc1nc2ccc3c(c2o1)O[C@@H](CN[C@H]1CC[C@@H](c2c[nH]c4ccc(F)cc42)CC1)CO3 [Example 12] |  |  | 84.4 | 11 | 80 to 82 |
